Columns and labels:
MV4-11 cells [1] = assay: MV-4-11 cell viability assay; format: cell-based, human; conditions: 72 hours, Cell Titer Glo
Experimental: MV-4-11 cell line was purchased from the American Type Culture Collection (ATCC, Manassas, VA). The cells were cultured according to recommendations in IMDM cell culture media (ATCC). Exponentially growing MV-4-11 cells were plated at 1,000 cells per well in Corning 8804BC white 384-well assay plates and incubated overnight at 37° C. in a humidified 5% CO2 incubator. Compounds were transferred to the assay plate from a dose-response plate using a Pintool on a Biomek FXP Laboratory Automation Workstation (Beckman Coulter). Cytotoxicity was determined following 72 hours of incubation using Promega Cell Titer Glo reagent according to the manufacturer's recommendation. Luminescence was measured on an Envision plate reader (Perkin-Elmer).
(§2) Compounds were screened in human cancer cell lines and each cell line was cultured in the complete medium recommended by the vendor and seeded in Corning 8804BC white 384-well assay plates at density of 1,000, 1,000, 1,000, 1,500 and 7,500 cells per well, for MV4-11, HD-MB03, MB004, MB002 and MHH-CALL4 cells respectively. After overnight incubation at 37° C. in a humidified 5% CO2 incubator, cells were treated with compounds in dose-response format using a Pintool on a Biomek FXP Laboratory Automation Workstation (Beckman Coulter). […] After 72 h incubation, cell proliferation was assessed using Cell Titer-Glo (CTG) luminescent cell viability assay (Promega) according to the manufacturer's instruction. Luminescence signal was measured using an Envision plate reader (Perkin-Elmer).

Aqueous solubility assay = format: physicochemical; conditions: aqueous solubility at pH = 7.4, triplicate
Experimental: Solubility assays were carried out on a Biomek FX lab automation workstation (Beckman Coulter, Inc., Fullerton, CA) using μSOL Evolution software (pION Inc., Woburn, MA). 10 μL of 10 mM compound stock (in DMSO) was added to 190 μL 1-propanol to make a reference stock plate. 5 μL from this reference stock plate were mixed with 70 μL 1-propanol and 75 μL citrate phosphate-buffered saline (PBS;isotonic) to make the reference plate, and the UV spectrum (250-500 nm) of the reference plate was read. 6 μL of 10 mM test compound stock was added to 594 μL buffer in a 96-well storage plate and mixed. The storage plate was sealed and incubated at RT for 18 h. The suspension was then filtered through a 96-well filter plate (pION Inc., Woburn, MA). 75 μL of filtrate was mixed with 75 μL 1-propanol to make the sample plate, and the UV spectrum of the sample plate was read. Calculations were carried out with μSOL Evolution software based on the area under the curve (AUC) of the UV spectrum of the sample and reference plates. All compounds were tested in triplicate.

IKZF1 = IKZF1 (Homo sapiens (Human), UniProt Q13422+Q96SW2); assay: IKZF1 degradation by immunoblot in MV4-11 cells; format: cell-based; conditions: MV4-11 cells
Experimental: MV4-11 cells were seeded in 6-well plates (1×10^6 cells per well). After overnight incubation, the cells were treated with indicated concentrations for specific timepoints. […] After blocking the membrane with LI-COR TBS blocking buffer and incubation in primary antibody overnight, the corresponding protein signals were detected using IRDye secondary antibodies and Odyssey Imaging System. Image Studio Lite Ver 5.2 was used for blot quantification. […] IRDye® 800CW Goat anti-Mouse IgG Secondary Antibody and IRDye® 68ORD Goat anti-Rabbit IgG Secondary Antibody were used as secondary antibodies.

[2] = Liver microsomes stability assay (human); format: in vitro ADME
Experimental: The liver microsome stability assay was carried as previously described (Refs. 40-41). NADPH regenerating agent solutions A and B and mouse liver microsomes (CD-1) were obtained from BD Gentest (Woburn, MA). Pooled human liver microsomes were purchased from XenoTech (Lenexa, KS). Ninety-six deep well plates were obtained from Midsci (St. Louis, MO). Ninety-six analytical plates were obtained from Corning Incorporated (Acton, MA). Sample preparation for microsomal stability was modified from Di's publications. A set of incubation times of 0, 15, 30, 60, 120, and 240 min were used. DMSO stock solutions of test compounds and verapamil (system control) were prepared at 10 mM concentration. Concentrated human or mouse liver microsomes (20 mg/mL protein concentration) and 0.5 M EDTA were diluted into 0.1 M potassium phosphate buffer (pH 7.4) and mixed well, followed by compounds solutions being spiked. This solution was mixed and 90 μL was transferred to 6 time points plates (each in triplicate wells). For the time 0 h plate, 3 fold (v:v) cold acetonitrile with internal standard (40 ng/ml warfarin) was added to each well, followed by addition of NADPH regenerating agent (mixing NADPH solutions A and B in PBS, pH7.4) and no incubation. […] The metabolic stability was evaluated via the half-life from least-squares fit of the multiple time points based on first-order kinetics.

[3] = Plasma protein binding assay (mouse); format: in vitro ADME
Experimental: (§1) Stock solutions were prepared at 10 mM in DMSO. Dulbecco's phosphate buffered saline (DPBS; pH 7.4) was obtained from Invitrogen (Carlsbad, CA). Single-Use RED (rapid equilibrium dialysis) device was obtained from Thermo scientific (Rockford, IL). Human and mouse plasma were obtained from GeneTex (Irvine, CA). Sample preparation for plasma protein binding was modified from Waters' method (see Waters, N.J., et al., J Pharm Sci. 2008 October; 97(10):4586-95). The Teflon base plate with the RED inserts was used without any pre-conditioning the membrane inserts. Plasma was thawed and centrifuged at 1000 rpm for 10 min to remove any particulates. Each compound was prepared at 10 μM in human or mouse plasma. Spiked plasma solutions (300 μL) were placed into the sample chamber (indicated by the red ring) and 500 μL of DPBS into the adjacent chamber. The plate was sealed and incubated at 37° C. on an orbital shaker (100 rpm) for 4 hours. After incubation, the seal was removed from the RED plate and the volume of the insert confirmed-little to no volume change occurred. […] The test compound concentrations were quantified in both buffer and plasma chambers via peak areas relative to the internal standard. The percentage of the test compound bound to plasma was calculated on following equations: % Free=(Concentration buffer chamber/concentration plasma chamber)×100% and % Bound=100%-% Free.

[4] = Plasma protein binding assay (human); format: in vitro ADME
Experimental: as §1

caspase 3/7 = assay: Caspase 3/7 activity assay; format: cell-based, human; conditions: MV4-11 cells, Caspase-Glo, 4, 8 and 24 hours, 10 and 100 nM
MV4-11 cells [5] = assay: Lenalidomide competition assay; format: cell-based, human; conditions: co-treatment with lenalidomide 10 μM, 72 h
Experimental: as §2

Compound: O=C1CCC(N2C(=O)c3ccc(NS(=O)(=O)c4ccccc4OC(F)(F)F)cc3C2=O)C(=O)N1 (stereo not shown) [Compound 1, N-(2-(2,6-dioxopiperidin-3-yl)-1,3-dioxoisoindolin-5-yl)-2-(trifluoromethoxy)benzenesulfonamide]
- MV4-11 EC50 (MV4-11 cells [1]): among the most potent
- Sol. (Aqueous solubility assay): 67 µM
- IKZF1 degradation at 4 hours (IKZF1; 4 hours, any concentration tested): did not significantly degrade IKZF1
- IKZF1 protein abundance (IKZF1; treatment over 24 hours): dose-dependent decrease
- intrinsic clearance Clint [2]: 4 mL/min/kg
- liver microsomes t1/2 [2]: 5.7 h
- Plasma protein binding [3]: 99.3%
- Plasma protein binding [4]: 99.1%
- caspase activation (caspase 3/7): measurable at 8 hours
- antiproliferative effect in presence of lenalidomide (MV4-11 cells [5]): abrogating the antiproliferative effects

— US20240132463A1, “SUBSTITUTED N-(2-(2,6-DIOXOPIPERIDIN-3-YL)-1,3-DIOXOISOINDOLIN-5-YL)ARYLSULFONAMIDE ANALOGS AS MODULATORS OF CEREBLON PROTEIN” (ST. JUDE CHILDREN'S RESEARCH HOSPITAL, INC., priority 2020, published 2024)
